We go through 20 molecules from patent publication EP4667458A1 (Kanaph Therapeutics Inc., priority 2023, dated 2024).

Assay [1] addresses T1, KRAS^G12C::SOS1 (Homo sapiens, UniProt Q07889).
T1 sequence (Q07889 1-1333): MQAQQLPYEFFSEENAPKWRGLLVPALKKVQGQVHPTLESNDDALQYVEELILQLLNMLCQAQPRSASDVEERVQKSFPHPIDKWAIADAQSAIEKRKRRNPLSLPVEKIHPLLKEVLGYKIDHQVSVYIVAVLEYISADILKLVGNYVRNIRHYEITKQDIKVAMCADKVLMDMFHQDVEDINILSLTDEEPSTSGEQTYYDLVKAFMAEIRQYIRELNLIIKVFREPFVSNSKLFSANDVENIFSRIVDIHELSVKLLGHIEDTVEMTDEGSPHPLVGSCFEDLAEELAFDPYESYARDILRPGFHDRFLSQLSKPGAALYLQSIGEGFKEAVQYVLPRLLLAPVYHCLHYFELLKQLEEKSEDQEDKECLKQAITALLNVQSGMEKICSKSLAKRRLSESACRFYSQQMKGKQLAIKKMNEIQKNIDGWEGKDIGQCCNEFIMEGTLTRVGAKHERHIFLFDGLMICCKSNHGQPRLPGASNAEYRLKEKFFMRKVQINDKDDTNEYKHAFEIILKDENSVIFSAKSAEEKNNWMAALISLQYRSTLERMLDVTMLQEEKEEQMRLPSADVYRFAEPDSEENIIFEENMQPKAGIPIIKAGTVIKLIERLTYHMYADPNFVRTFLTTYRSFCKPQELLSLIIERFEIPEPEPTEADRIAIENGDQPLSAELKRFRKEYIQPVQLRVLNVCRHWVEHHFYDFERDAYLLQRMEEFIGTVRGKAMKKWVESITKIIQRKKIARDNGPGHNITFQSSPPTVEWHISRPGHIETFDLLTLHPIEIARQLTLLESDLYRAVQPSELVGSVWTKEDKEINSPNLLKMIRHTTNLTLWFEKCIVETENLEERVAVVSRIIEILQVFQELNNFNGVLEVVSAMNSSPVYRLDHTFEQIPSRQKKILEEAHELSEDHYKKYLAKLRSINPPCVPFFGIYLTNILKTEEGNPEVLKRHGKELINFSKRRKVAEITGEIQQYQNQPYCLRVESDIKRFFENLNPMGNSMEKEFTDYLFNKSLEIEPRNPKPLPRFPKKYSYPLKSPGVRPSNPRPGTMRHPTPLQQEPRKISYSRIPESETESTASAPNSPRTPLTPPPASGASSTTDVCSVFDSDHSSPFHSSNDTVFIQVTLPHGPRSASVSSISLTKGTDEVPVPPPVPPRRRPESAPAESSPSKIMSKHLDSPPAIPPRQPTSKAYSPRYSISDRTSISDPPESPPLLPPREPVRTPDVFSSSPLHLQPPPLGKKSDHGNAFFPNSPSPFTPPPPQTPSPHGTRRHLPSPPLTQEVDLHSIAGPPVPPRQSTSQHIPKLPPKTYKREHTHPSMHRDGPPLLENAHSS
Kind of assay: KRAS G12C::SOS1 protein-protein interaction (PPI) inhibition assay (HTRF binding kit).

Assay [2] has as its target T2, SOS1 (Homo sapiens, UniProt Q07889).
T2 construct: adding equal amounts of HIS-SOS1cat (160 nM; Cytoskeleton, US); His; purchased Cytoskeleton, US
T2 sequence (Q07889 564-1049 limits assumed): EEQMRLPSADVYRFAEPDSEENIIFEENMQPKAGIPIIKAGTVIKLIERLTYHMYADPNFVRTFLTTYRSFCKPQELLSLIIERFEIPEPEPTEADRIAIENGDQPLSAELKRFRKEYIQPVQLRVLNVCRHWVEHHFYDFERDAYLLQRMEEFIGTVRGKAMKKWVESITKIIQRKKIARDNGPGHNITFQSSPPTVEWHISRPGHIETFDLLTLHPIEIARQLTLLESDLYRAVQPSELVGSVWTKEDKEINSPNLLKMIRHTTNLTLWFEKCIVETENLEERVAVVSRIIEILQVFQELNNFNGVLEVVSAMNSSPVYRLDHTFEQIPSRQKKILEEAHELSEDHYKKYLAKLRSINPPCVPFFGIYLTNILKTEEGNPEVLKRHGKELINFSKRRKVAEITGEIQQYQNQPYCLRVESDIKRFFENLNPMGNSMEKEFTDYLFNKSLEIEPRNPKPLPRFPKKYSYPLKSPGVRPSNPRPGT
In words: SOS-catalyzed nucleotide exchange assay (HTRF, SOS1-mediated GTP loading of KRAS G12D). Conditions: GST-KRAS G12D, HIS-SOS1cat, EDA-GTP-DY-647P1; compound 128 pM to 10 µM; read-out: SOS-catalyzed nucleotide exchange assay (IC50 range, Grade). It is filed as biochemical. The gist of the method:
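SOS1cat (HIS-tagged) preincubated 10 min at room temperature with compound (128 pM-10 µM), then GST-KRAS G12D with anti-GST terbium added; GTP loading tracked as HTRF with a DY-647P1 GTP analogue after 30 min, buffer HEPES pH 7.4. GEF-free wells for normalization; IC50 derived.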

Read-outs that look alike come from different tables or passages of the source.

As a reminder, the IC50 is the concentration at which inhibition is half-maximal. On to “N-[(1R)-1-[3-amino-5-(trifluoromethyl)phenyl]ethyl]-6-oxo-1-[4-(trifluoromethoxy)phenyl]pyridazine-3-carboxamide [Example 154]”, for which the IC50 in assay [1] (read-out: KRAS ^G12C::SOS1 PPI assay (IC50 range, Grade), maximum concentration 3 µM, 8 concentrations, three replicates) is below 1000 nM; in assay [2], 1000 to 10000 nM.

In the case of `C[C@@H](NC(=O)c1ccc(=O)n(-c2ccccc2F)n1)c1cccc(I)c1F` [Example 144, N-[(1R)-1-(2-fluoro-3-iodo-phenyl)ethyl]-1-(2-fluorophenyl)-6-oxo-pyridazine-3-carboxamide], the figures for the IC50 in assay [1] and in assay [2] were below 1000 nM and 1000 to 10000 nM, respectively.

On to `Cc1cc(C(=O)N[C@H](C)c2cc(N)cc(C(F)(F)F)c2F)nn(-c2cncc(-c3cnnn3C)c2)c1=O` [Example B03, N-[(1R)-1-[5-amino-2-fluoro-3-(trifluoromethyl)phenyl]ethyl]-5-methyl-1-[5-(3-methyltriazol-4-yl)-3-pyridyl]-6-oxo-pyridazine-3-carboxamide], for which the IC50 in assay [1] and in assay [2] was below 1000 nM in each case.

For `C[C@@H](NC(=O)c1ccc(=O)n(-c2cccnc2F)c1)c1cc(N)cc(C(F)(F)F)c1` [Example 148, N-[(1R)-1-[3-amino-5-(trifluoromethyl)phenyl]ethyl]-1-(2-fluoro-3-pyridyl)-6-oxo-pyridine-3-carboxamide], the IC50 in assay [1] and in assay [2] was above 10000 nM throughout.

As for `COCc1ccccc1-n1nc(C(=O)N[C@H](C)c2cc(N)cc(C(F)(F)F)c2)ccc1=O` [Example 157, N-[(1R)-1-[3-amino-5-(trifluoromethyl)phenyl]ethyl]-1-[2-(methoxymethyl)phenyl]-6-oxo-pyridazine-3-carboxamide], the IC50 in assay [1] and in assay [2] was 1000 to 10000 nM each time.

In the case of `COc1ccc(-n2nc(C(=O)N[C@H](C)c3cccc(C(F)(F)CO)c3F)ccc2=O)c(OC)c1` [Example 151, N-[(1R)-1-[3-(1,1-difluoro-2-hydroxy-ethyl)-2-fluoro-phenyl]ethyl]-1-(2,4-dimethoxyphenyl)-6-oxo-pyridazine-3-carboxamide], the IC50 in assay [1] and in assay [2] was below 1000 nM each time.

`Cc1cc(C(=O)N[C@H](C)c2cc(N)cc(C(F)F)c2)nn(-c2cncc(-c3cnnn3C)c2)c1=O` [Example B07, N-[(1R)-1-[3-amino-5-(difluoromethyl)phenyl]ethyl]-5-methyl-1-[5-(3-methyltriazol-4-yl)-3-pyridyl]-6-oxo-pyridizine-3-carboxamide]: the IC50 in assay [1] and in assay [2] was below 1000 nM each time.

Turning to `C[C@@H](NC(=O)c1ccc(=O)n(-c2cccc(F)c2)n1)c1cc(N)cc(C(F)(F)F)c1` [Example 158, N-[(1R)-1-[3-amino-5-(trifluoromethyl)phenyl]ethyl]-1-(3-fluorophenyl)-6-oxo-pyridazine-3-carboxamide], the IC50 in assay [1] and in assay [2] was below 1000 nM throughout.

Regarding `C[C@@H](NC(=O)c1ccc(=O)n(-c2ccc(F)c(-c3cnnn3C)c2)n1)c1cccc(C(F)(F)F)c1F` [Example B06, N-[(R)-1-[2-fluoro-3-(trifluoromethyl)phenyl]ethyl]-1-[4-fluoro-3-(1-methyl-1H-1,2,3-triazol-5-yl)phenyl]-6-oxo-1,6-dihydro-3-pyridazinecarboxamide], the IC50 in assay [1] and in assay [2] was below 1000 nM throughout.

On to `C[C@@H](NC(=O)c1ccc(=O)n(-c2cccc(NS(C)(=O)=O)c2)n1)c1cc(N)cc(C(F)(F)F)c1` [Example 34, (R)-N-(1-(3-amino-5-(trifluoromethyl)phenyl)ethyl)-1-(3-(methylsulfonamido)phenyl)-6-oxo-1,6-dihydropyridazine-3-carboxamide], for which the IC50 in assay [2] lay in the range of 1000 to 10000 nM.

Regarding `CNCc1ccc(Cl)cc1-c1cnc([C@@H](C)NC(=O)c2ccc(=O)n(-c3ccccc3F)n2)s1` [Example 137, N-[(1R)-1-[5-[5-chloro-2-(methylaminomethyl)phenyl]thiazol-2-yl]ethyl]-1-(2-fluorophenyl)-6-oxo-pyridazine-3-carboxamide], the IC50 in assay [2] is below 1000 nM.

`C[C@@H](NC(=O)c1cc(C#N)c(=O)n(-c2ccccc2)n1)c1cc(N)cc(C(F)(F)F)c1` [Example 56, N-[(1R)-1-[3-amino-5-(trifluoromethyl)phenyl]ethyl]-5-cyano-6-oxo-1-phenyl-pyridazine-3-carboxamide]: the IC50 in assay [2] is below 1000 nM.

As to `C[C@@H](NC(=O)c1ccc(=O)n(-c2ccccc2C#N)n1)c1cc(N)cc(C(F)(F)F)c1` [Example 29, N-[(1R)-1-[3-amino-5-(trifluoromethyl)phenyl]ethyl]-1-(2-cyanophenyl)-6-oxo-pyridazine-3-carboxamide], in assay [2], the IC50 is below 1000 nM.

For the molecule `C[C@@H](NC(=O)c1ccc(=O)n(-c2ccccc2)n1)c1cccc(Cl)c1` [Example 1, N-[(1R)-1-(3-chlorophenyl)ethyl]-6-oxo-1-phenyl-pyridazine-3-carboxamide], in assay [2], the IC50 lay in the range of 1000 to 10000 nM.

Take `COc1ccccc1-n1nc(C(=O)N[C@H](C)c2cccc(C(F)(F)CO)c2)ccc1=O` [Example 38, N-[(1R)-1-[3-(1,1-difluoro-2-hydroxyethyl)phenyl]ethyl]-1-(2-methoxyphenyl)-6-oxo-pyridazine-3-carboxamide]: the IC50 in assay [2] is below 1000 nM.

Regarding `COc1cccc(-n2nc(C(=O)N[C@H](C)c3cc(N)cc(C(F)(F)F)c3)ccc2=O)c1` [Example 40, N-[(1R)-1-[3-amino-5-(trifluoromethyl)phenyl]ethyl]-1-(3-methoxyphenyl)-6-oxo-pyridazine-3-carboxamide], in assay [2], the IC50 is below 1000 nM.

With `CC(=O)Nc1ccccc1-n1nc(C(=O)N[C@H](C)c2cc(N)cc(C(F)(F)F)c2)ccc1=O` [Example 52, (R)-1-(2-acetamidophenyl)-N-(1-(3-amino-5-(trifluoromethyl)phenyl)ethyl)-6-oxo-1,6-dihydropyridazine-3-carboxamide], the IC50 in assay [2] lay within 1000 to 10000 nM.

As to `C[C@@H](NC(=O)c1ccc(=O)n(-c2ccccc2)n1)c1cccc(C(F)(F)F)c1` [Example 15, 6-oxo-1-phenyl-N-[(1R)-1-[3-(trifluoromethyl)phenyl]ethyl]pyridazine-3-carboxamide], in assay [2], the IC50 is below 1000 nM.

`C[C@@H](NC(=O)c1ccc(=O)n(-c2cccc(NC(=O)C3CC3)c2)c1)c1cc(N)cc(C(F)(F)F)c1` [Example 130, N-[(1R)-1-[3-amino-5-(trifluoromethyl)phenyl]ethyl]-1-(3-cyclopropaneamidophenyl)-6-oxo-1,6-dihydropyridine-3-carboxamide]: in assay [2], the IC50 is below 1000 nM.

As for `C[C@@H](NC(=O)c1ccc(=O)n(C2=CCCN(S(C)(=O)=O)C2)n1)c1cc(N)cc(C(F)(F)F)c1` [Example 69, N-[(1R)-1-[3-amino-5-(trifluoromethyl)phenyl]ethyl]-1-(1-methanesulfonyl-1,2,5,6-tetrahydropyridin-3-yl)-6-oxo-1,6-dihydropyridazine-3-carboxamide], the IC50 in assay [2] fell in the range of 1000 to 10000 nM.
